# Assay results published in US8653087B2, “Pyrido [5, 4-D] pyrimidines as cell proliferation inhibitors” (Boehringer Ingelheim International GmbH, priority 2008, dated 2014).
# Biological target: B-Raf (V600E)-kinase (Homo sapiens (Human), UniProt P15056, V600E)
# Assay: Kinase test B-RAF (V600E)
# Assay type: biochemical
# Settings: B-RAF (V600E) kinase test, 250 μM ATP
# Summary of the method: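 B-Raf (V600E) (0.5 ng) preincubated with compound 24 h at RT (5% DMSO), then reacted 60 min at RT with 250 μM ATP and biotinylated MEK1 as substrate. Phospho-MEK (Ser217/221) captured on streptavidin and detected by europium time-resolved fluorescence; IC50 from dose-response curves.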
# Chain of B-Raf (V600E)-kinase (P15056 whole entry V600E): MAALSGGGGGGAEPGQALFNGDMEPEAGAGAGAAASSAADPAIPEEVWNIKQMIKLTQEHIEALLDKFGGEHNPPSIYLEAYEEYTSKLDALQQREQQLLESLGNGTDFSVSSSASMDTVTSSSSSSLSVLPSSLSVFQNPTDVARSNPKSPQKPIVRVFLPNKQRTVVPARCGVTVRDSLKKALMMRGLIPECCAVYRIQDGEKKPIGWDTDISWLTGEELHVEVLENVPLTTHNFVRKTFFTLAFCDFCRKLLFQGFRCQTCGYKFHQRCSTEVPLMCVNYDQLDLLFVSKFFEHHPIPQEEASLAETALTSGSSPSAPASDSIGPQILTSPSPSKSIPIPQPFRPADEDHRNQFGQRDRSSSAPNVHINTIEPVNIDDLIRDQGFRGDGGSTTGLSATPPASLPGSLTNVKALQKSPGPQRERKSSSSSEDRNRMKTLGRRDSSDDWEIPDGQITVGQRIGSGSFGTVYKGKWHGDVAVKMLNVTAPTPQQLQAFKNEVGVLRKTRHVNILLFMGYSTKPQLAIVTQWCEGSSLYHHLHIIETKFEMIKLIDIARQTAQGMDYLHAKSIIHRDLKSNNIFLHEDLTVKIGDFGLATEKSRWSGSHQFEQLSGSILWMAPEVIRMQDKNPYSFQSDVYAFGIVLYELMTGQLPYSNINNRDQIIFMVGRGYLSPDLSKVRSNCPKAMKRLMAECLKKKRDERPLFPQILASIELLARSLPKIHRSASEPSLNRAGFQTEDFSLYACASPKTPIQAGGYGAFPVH
row,Structure (SMILES),IC50
1,COCCN1CCN(c2ncc3ncnc(Nc4cc(C(=O)Nc5cc(C(C)(C)C)ccc5OC)ccc4C)c3n2)CC1 [III-422],5 nM
2,COCCN1CCN(c2ncc3ncnc(Nc4cc(C(=O)Nc5cccc(C(F)(F)F)c5)ccc4C)c3n2)CC1 [III-423],< 1 nM
3,COCCN1CCN(c2ncc3ncnc(Nc4cc(C(=O)Nc5cc(C(C)(C)C)n[nH]5)ccc4C)c3n2)CC1 [III-425],7 nM
4,COCCN1CCN(c2ncc3ncnc(Nc4cc(C(=O)Nc5cc(C(F)(F)F)ccn5)ccc4C)c3n2)CC1 [III-426],< 1 nM
5,Cc1ccc(C(=O)Nc2cccc(C(C)(C)C)c2)cc1Nc1ncnc2cnc(NCc3ccccc3)nc12 [III-428],< 1 nM
6,Cc1ccc(C(=O)Nc2cc(C(C)(C)C)nn2C)cc1Nc1ncnc2cnc(NCc3ccccc3)nc12 [III-429],2 nM
7,COc1ccc(NC(=O)c2ccc(C)c(Nc3ncnc4cnc(N5C[C@H]6C[C@@H]5CN6C)nc34)c2)cc1C(F)(F)F [III-431],3 nM
8,COc1ccc(NC(=O)c2ccc(C)c(Nc3ncnc4cnc(N5CCN(CC6CCOC6)CC5)nc34)c2)cc1C(F)(F)F (centres unmarked) [III-432],6 nM
9,COc1ccc(NC(=O)c2ccc(C)c(Nc3ncnc4cnc(N5CCC(N(C)C)CC5)nc34)c2)cc1C(F)(F)F [III-435],1 nM
10,COc1ccc(NC(=O)c2ccc(C)c(Nc3ncnc4cnc(N5C[C@@H](C)N[C@@H](C)C5)nc34)c2)cc1C(F)(F)F [III-436],2 nM
11,Cc1ccc(C(=O)Nc2cc(N(C)CCN(C)C)cc(C(F)(F)F)c2)cc1Nc1ncnc2cnc(N3CC[C@H](F)C3)nc12 [III-438],6 nM
12,Cc1ccc(C(=O)Nc2cc(N(C)CCN(C)C)cc(C(F)(F)F)c2)cc1Nc1ncnc2cnc(N3CCCC3)nc12 [III-440],272 nM
13,CCN1CCN(c2cc(NC(=O)c3ccc(C)c(Nc4ncnc5cnc(N6CCOCC6)nc45)c3)cc(C(F)(F)F)c2)CC1 [III-441],2 nM
14,Cc1ccc(C(=O)Nc2cc(N(C)CCN(C)C)cc(C(F)(F)F)c2)cc1Nc1ncnc2cnc(N3CCOCC3)nc12 [III-442],1 nM
15,Cc1ccc(C(=O)Nc2cc(C(C)(C)C)n[nH]2)cc1Nc1ncnc2cnc(N3CCN(CC(C)C)CC3)nc12 [III-447],13 nM
16,Cc1ccc(C(=O)Nc2cc(C(F)(F)F)ccn2)cc1Nc1ncnc2cnc(N3CCN(CC(C)C)CC3)nc12 [III-449],3 nM
17,Cc1cn(-c2cc(NC(=O)c3ccc(C)c(Nc4ncnc5cnc(N6CC[C@H](F)C6)nc45)c3)cc(C(F)(F)F)c2)cn1 [III-454],4 nM
18,Cc1ccc(C(=O)Nc2cc(N3CCN(C)CC3)cc(C(F)(F)F)c2)cc1Nc1ncnc2cnc(N3CC[C@H](F)C3)nc12 [III-457],4 nM
19,Cc1ccc(C(=O)Nc2cc(N3CCCN(C)CC3)cc(C(F)(F)F)c2)cc1Nc1ncnc2cnc(N3CC[C@H](F)C3)nc12 [III-458],1 nM
20,Cc1ccc(C(=O)Nc2cc(CN3CCCC3)cc(C(F)(F)F)c2)cc1Nc1ncnc2cnc(N3CC[C@H](F)C3)nc12 [III-459],2 nM
21,Cc1ccc(C(=O)Nc2cc(N3CCN(C)CC3)cc(C(F)(F)F)c2)cc1Nc1ncnc2cnc(N3CCOCC3)nc12 [III-462],1 nM

row,Structure (SMILES),IC50
1,COCCN(C)c1ncc2ncnc(Nc3cc(C(=O)Nc4cccc(C(F)(F)F)c4)ccc3C)c2n1 [III-467],2 nM
2,COCCN(C)c1ncc2ncnc(Nc3cc(C(=O)Nc4cccc(C(C)(C)C)c4)ccc3C)c2n1 [III-468],< 1 nM
3,COCCN(C)c1ncc2ncnc(Nc3cc(C(=O)Nc4cc(N(C)CCN(C)C)cc(C(F)(F)F)c4)ccc3C)c2n1 [III-469],< 1 nM
4,CCN1CCN(c2cc(NC(=O)c3ccc(C)c(Nc4ncnc5cnc(N(C)CCOC)nc45)c3)cc(C(F)(F)F)c2)CC1 [III-470],2 nM
5,COCCN(C)c1ncc2ncnc(Nc3cc(C(=O)Nc4cc(C(C)(C)C)n[nH]4)ccc3C)c2n1 [III-471],4 nM
6,COCCN(C)c1ncc2ncnc(Nc3cc(C(=O)Nc4ccc(OC)c(C(F)(F)F)c4)ccc3C)c2n1 [III-473],1 nM
7,Cc1ccc(C(=O)Nc2cc(C(C)(C)C)on2)cc1Nc1ncnc2cnc(N3CCN(CC4CCOC4)CC3)nc12 (centres unmarked) [III-482],4 nM
8,Cc1ccc(C(=O)Nc2cc(C(C)(C)C)on2)cc1Nc1ncnc2cnc(N3CCN4CCCC4C3)nc12 (centres unmarked) [III-484],3 nM
9,Cc1ccc(C(=O)Nc2cc(C(C)(C)C)on2)cc1Nc1ncnc2cnc(N3CCC(N4CCCCC4)CC3)nc12 [III-485],3 nM
10,Cc1ccc(C(=O)Nc2cc(C(C)(C)C)on2)cc1Nc1ncnc2cnc(N3CCN(C4CCN(C)CC4)CC3)nc12 [III-486],4 nM
11,Cc1ccc(C(=O)Nc2cc(C(C)(C)C)on2)cc1Nc1ncnc2cnc(NCC(C)C)nc12 [III-487],13 nM
12,Cc1ccc(C(=O)Nc2cc(C(C)(C)C)on2)cc1Nc1ncnc2cnc(N3CCC(N4C[C@@H](C)O[C@@H](C)C4)CC3)nc12 [III-488],6 nM
13,Cc1ccc(C(=O)Nc2cc(C(C)(C)C)on2)cc1Nc1ncnc2cnc(N3CCC(N4CCOCC4)CC3)nc12 [III-489],1 nM
14,Cc1ccc(C(=O)Nc2cc(C(C)(C)C)on2)cc1Nc1ncnc2cnc(N3CCC(N4CCCC4)CC3)nc12 [III-490],2 nM
15,CCN1CCN(c2ncc3ncnc(Nc4cc(C(=O)Nc5cc(C(C)(C)C)on5)ccc4C)c3n2)CC1 [III-491],2 nM
16,Cc1ccc(C(=O)Nc2cc(C(C)(C)C)on2)cc1Nc1ncnc2cnc(N3CCN(CC(C)C)CC3)nc12 [III-494],4 nM
17,Cc1ccc(C(=O)Nc2cc(C(C)(C)C)on2)cc1Nc1ncnc2cnc(N3CCC(N(C)C)CC3)nc12 [III-495],2 nM
18,Cc1ccc(C(=O)Nc2cc(C(C)(C)C)on2)cc1Nc1ncnc2cnc(N3C[C@H]4C[C@@H]3CN4C)nc12 [III-497],2 nM
19,Cc1ccc(C(=O)Nc2cc(C(C)(C)C)nn2C)cc1Nc1ncnc2cnc(NCC(C)C)nc12 [III-499],3 nM
20,Cc1ccc(C(=O)Nc2cccc(C(C)(C)C)c2)cc1Nc1ncnc2cnc(NCC(C)C)nc12 [III-500],< 1 nM

# The remaining molecules from weak to strong by IC50, led by results:
row,IC50,Structure (SMILES)
1,17 nM,Cc1ccc(C(=O)Nc2cc(C(C)(C)C)nn2C)cc1Nc1ncnc2cnc(N(C)CC3CCCCO3)nc12 (centres unmarked) [III-476]
2,8 nM,Cc1ccc(C(=O)Nc2cc(C(C)(C)C)n[nH]2)cc1Nc1ncnc2cnc(N3CCN(C)CC3)nc12 [III-448]
3,8 nM,Cc1ccc(C(=O)Nc2cc(N3CCN(CC(C)C)CC3)cc(C(F)(F)F)c2)cc1Nc1ncnc2cnc(N3CC[C@H](F)C3)nc12 [III-455]
4,7 nM,Cc1ccc(C(=O)Nc2cccc(C(C)(C)C#N)c2)cc1Nc1ncnc2cnc(NCc3ccccc3)nc12 [III-430]
5,7 nM,COc1ccc(NC(=O)c2ccc(C)c(Nc3ncnc4cnc(N5CCN(C6CC6)CC5)nc34)c2)cc1C(F)(F)F [III-433]
6,6 nM,CCN1CCN(c2cc(NC(=O)c3ccc(C)c(Nc4ncnc5cnc(N6CCN(CCOC)CC6)nc45)c3)cc(C(F)(F)F)c2)CC1 [III-424]
7,6 nM,Cc1ccc(C(=O)Nc2cc(C(C)(C)C)n[nH]2)cc1Nc1ncnc2cnc(N3CCCN(C)CC3)nc12 [III-446]
8,5 nM,Cc1ccc(C(=O)Nc2cc(C(C)(C)C)on2)cc1Nc1ncnc2cnc(N3CCN(C4CC4)CC3)nc12 [III-493]
9,4 nM,CCN1CCN(c2cc(NC(=O)c3ccc(C)c(Nc4ncnc5cnc(N6CC[C@H](F)C6)nc45)c3)cc(C(F)(F)F)c2)CC1 [III-439]
10,4 nM,COc1ccc(NC(=O)c2ccc(C)c(Nc3ncnc4cnc(N5CCN(CC(C)C)CC5)nc34)c2)cc1C(F)(F)F [III-444]
11,4 nM,Cc1ccc(C(=O)Nc2cc(N3CCN(CC(C)C)CC3)cc(C(F)(F)F)c2)cc1Nc1ncnc2cnc(N3CCOCC3)nc12 [III-460]
12,4 nM,Cc1ccc(C(=O)Nc2cc(C(C)(C)C)on2)cc1Nc1ncnc2cnc(N(C)CC3CCCCO3)nc12 (centres unmarked) [III-480]
13,3 nM,Cc1cn(-c2cc(NC(=O)c3ccc(C)c(Nc4ncnc5cnc(N6CCC(F)(F)C6)nc45)c3)cc(C(F)(F)F)c2)cn1 [III-450]
14,3 nM,Cc1ccc(C(=O)Nc2cc(N3CCN(C(C)C)CC3)cc(C(F)(F)F)c2)cc1Nc1ncnc2cnc(N3CC[C@H](F)C3)nc12 [III-456]
15,2 nM,COCCN1CCN(c2ncc3ncnc(Nc4cc(C(=O)Nc5ccc(OC)c(C(F)(F)F)c5)ccc4C)c3n2)CC1 [III-427]
16,2 nM,COc1ccc(NC(=O)c2ccc(C)c(Nc3ncnc4cnc(N5CCN(C(C)C)CC5)nc34)c2)cc1C(F)(F)F [III-437]
17,2 nM,COc1ccc(NC(=O)c2ccc(C)c(Nc3ncnc4cnc(N5CCCC5)nc34)c2)cc1C(F)(F)F [III-445]
18,2 nM,Cc1ccc(C(=O)Nc2cc(N3CCN(C(C)C)CC3)cc(C(F)(F)F)c2)cc1Nc1ncnc2cnc(N3CCOCC3)nc12 [III-461]
19,2 nM,Cc1ccc(C(=O)Nc2cc(N3CCCN(C)CC3)cc(C(F)(F)F)c2)cc1Nc1ncnc2cnc(N3CCOCC3)nc12 [III-463]
20,2 nM,COCCN(C)c1ncc2ncnc(Nc3cc(C(=O)Nc4cc(C(C)(C)C)nn4C)ccc3C)c2n1 [III-465]
21,2 nM,COCCN(C)c1ncc2ncnc(Nc3cc(C(=O)Nc4cc(C(F)(F)F)ccn4)ccc3C)c2n1 [III-472]
22,2 nM,Cc1ccc(C(=O)Nc2cc(C(C)(C)C)on2)cc1Nc1ncnc2cnc(N3CCN(C(C)C)CC3)nc12 [III-492]
23,2 nM,Cc1ccc(C(=O)Nc2cc(C(C)(C)C)on2)cc1Nc1ncnc2cnc(N3C[C@@H](C)N[C@@H](C)C3)nc12 [III-496]
24,1 nM,COc1ccc(NC(=O)c2ccc(C)c(Nc3ncnc4cnc(N5CCCN(C)CC5)nc34)c2)cc1C(F)(F)F [III-443]
25,1 nM,COCCN(C)c1ncc2ncnc(Nc3cc(C(=O)Nc4cc(C(C)(C)C)on4)ccc3C)c2n1 [III-474]
26,1 nM,Cc1ccc(C(=O)Nc2cc(C(C)(C)C)on2)cc1Nc1ncnc2cnc(N3CCN(CCCN4CCCC4)CC3)nc12 [III-481]
27,1 nM,Cc1ccc(C(=O)Nc2cc(C(C)(C)C)on2)cc1Nc1ncnc2cnc(N3CCN(CC4CCCN(C)C4)CC3)nc12 (centres unmarked) [III-483]
